Columns and labels:
[1] = tested on: Bacillus subtilis ATCC 6633; assay: agar diffusion microbial method; format: cell-based; conditions: beef-extract-peptone-glucose agar, pH 6.5, Bacillus subtilis ATCC 6633
Method: The antibacterial activity of the pseudomonic acid antibiotic complex is determined by agar diffusion microbial method. The medium is a beef-extract-peptone-glucose-containing agar, its pH is 6.5 and the test organism is Bacillus subtilis ATCC 6633.

[2] = both for humans and animals; cited from earlier work
[3] = target: isoleucine-tRNA synthase enzyme (Escherichia coli, UniProt P00956); conditions: affects the peptide synthesis of pathogen bacteria; cited from earlier work
isoleucine-tRNA synthase enzyme, sequence (P00956 whole entry): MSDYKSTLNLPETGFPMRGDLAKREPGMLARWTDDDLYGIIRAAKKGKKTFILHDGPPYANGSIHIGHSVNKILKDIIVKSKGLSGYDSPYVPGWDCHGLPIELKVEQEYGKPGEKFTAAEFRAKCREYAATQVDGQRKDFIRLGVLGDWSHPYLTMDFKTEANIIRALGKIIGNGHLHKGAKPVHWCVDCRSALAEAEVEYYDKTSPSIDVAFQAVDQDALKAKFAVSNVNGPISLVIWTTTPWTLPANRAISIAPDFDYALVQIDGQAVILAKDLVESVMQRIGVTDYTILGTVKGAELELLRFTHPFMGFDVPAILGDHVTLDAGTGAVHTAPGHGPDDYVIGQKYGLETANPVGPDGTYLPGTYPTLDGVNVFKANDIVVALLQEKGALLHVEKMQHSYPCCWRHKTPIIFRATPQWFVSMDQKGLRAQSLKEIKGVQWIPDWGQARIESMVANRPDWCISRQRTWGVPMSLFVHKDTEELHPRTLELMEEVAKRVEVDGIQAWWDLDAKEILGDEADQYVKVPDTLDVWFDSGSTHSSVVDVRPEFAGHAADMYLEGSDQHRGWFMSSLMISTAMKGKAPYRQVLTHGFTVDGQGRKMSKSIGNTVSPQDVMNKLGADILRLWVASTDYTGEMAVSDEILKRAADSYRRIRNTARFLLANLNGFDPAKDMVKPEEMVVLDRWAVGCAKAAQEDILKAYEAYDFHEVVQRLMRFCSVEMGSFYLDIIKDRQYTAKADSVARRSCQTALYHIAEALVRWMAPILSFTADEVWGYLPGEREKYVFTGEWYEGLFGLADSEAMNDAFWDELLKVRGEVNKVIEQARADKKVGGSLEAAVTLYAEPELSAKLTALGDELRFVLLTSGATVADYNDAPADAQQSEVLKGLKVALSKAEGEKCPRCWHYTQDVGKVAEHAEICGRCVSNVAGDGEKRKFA

| SMILES | specific activity against the test-microorganism relating to the component A [1] | toxicity [2] | inhibition of isoleucine-tRNA synthase enzyme [3] |
| --- | --- | --- | --- |
| C/C(=C\C(=O)OCCCCCCCCC(=O)O)CC1OC[C@](O)(C[C@@H]2O[C@H]2[C@@H](C)[C@H](C)O)[C@@H](O)[C@H]1O (stereo partly drawn) [component B, pseudomonic acid B] | considerably weaker |  |  |
| C/C(=C\C(=O)OCCCCCCCCC(=O)O)CC1OC[C@H](C[C@@H]2O[C@H]2[C@@H](C)[C@H](C)O)[C@@H](O)[C@H]1O (stereo partly drawn) [Pseudomonic acid A, 9-{4[5S(2S,3S-epoxy-5S-hydroxy-4S-methylhexyl)-3R,4R-dihydroxy-tetrahydropyran-2S-yl]-3-methylbut-2(E)-enoyloxy}nonanoic acid] |  | very low toxicity | inhibiting |

Source: patent US7078223B2, “Process for the preparation of pseudomonic acid a antibiotic by microbiological method” (TEVA Gyógyszergyár Zártkörüen Müködö Részvénytársaság, priority 1999, dated 2006)
